The values below come from US20140220552A1, “BLOOD COLLECTION DEVICES CONTAINING CONTACT PATHWAY INHIBITION ADDITIVES” (Becton, Dickinson and Company, priority 2013, published 2014).

In one data set the test system is TF coagulation pathway. Briefly: PT assay in plasma (high dose tissue factor). It counts as biochemical, human. The conditions noted are these: for thrombin generation in tests that monitor the TF coagulation pathway exclusively: identical samples as aPTT, FIG. 6 lower panels; for PT clotting time result: plasma containing inhibitor, FIG. 6. From the text: (§1) FIG. 6 was obtained by performing matched aPTT, PT, and TT assays from plasma containing various inhibitors. These assays are well known to those skilled in the art and are not described in great detail here. […] Corn trypsin inhibitor (CTI) was included as a control since it is the factor XIIa inhibitor currently available in a blood collection tube.
This verifies that aprotinin exclusively suppresses thrombin formation through the contact coagulation pathway but not through the TF pathway.

The next data set deals with thrombin. Nature of the data set: TT assay in plasma (exogenous thrombin). The data set is classed as biochemical, human. Particulars: plasma containing inhibitor, FIG. 6.
Source text: as §1

Data set [1] has as its system contact coagulation pathway. Briefly: activated partial thromboplastin time (aPTT) assay in plasma. The data set is classed as biochemical, human. The conditions noted are these: plasma containing inhibitor, FIG. 6, anti-FXI antibody at 7.5 μg/mL.
Source text: as §1
(§2) Citrated human WB is transferred from a blood collection bag into coated (siliconized) glass or plastic blood collection tubes, or uncoated glass, polypropylene (PP), polystyrene (PS), or polyethylene terephthalate (PET) conical bottom tubes, either alone or in the presence of inhibitors targeting kallikrein (e.g. aprotinin) or FXIa (e.g. anti-human Factor XI antibody). After 15 minutes incubation, the TEG R value is obtained immediately after addition of 10 mM CaCl2. Matched plasma specimens are analyzed by the CAT in the presence and absence of 1 picomolar Tissue Factor (TF) and by activated partial thromboplastin time (APTT; Stago Compact). Data are analyzed by ANOVA with Tukey's post-test and by linear regression.

The next data set relates to thrombin generation. Nature of the data set: Calibrated Automated Thrombogram (CAT) thrombin generation assay in citrated plasma. The data set is classed as biochemical, human.
Source text: FIGS. 3A and 3B is a table and chart comparing thrombin generation from citrated plasma obtained from tubes made of various materials using the Calibrated Automated Thrombogram (CAT) assay. The CAT assay, rather than measuring coagulation, combines the use of a fluorogenic substrate that is cleaved in the presence of thrombin as well as a calibrator to provide a quantitative measurement of thrombin generation in a recalcified plasma sample. The predominant use of this assay is to examine the thrombin generation profile of a clinical research sample in response to tissue factor (TF). […] The charts contained in FIG. 3B provide example thrombin generation curves that were used to populate the data table in FIG. 3A.
as §2, with “After 15 minutes incubation, the TEG R value is obtained immediately after addition of 10 mM CaCl2.” left out, “regression. […]” for “regression.”

Data set [2] has as its system contact coagulation pathway. Nature of the data set: Thrombelastography (TEG) citrated-native whole blood clotting time (R time) after recalcification. The data set is classed as biochemical, human. On the procedure:
FIGS. 2A and 2B are a table and chart comparing recalcified clotting times for tubes made from various materials using a Thrombelastograph® (TEG) 5000 Hemostasis Analyzer. […] Briefly, BD Vacutainer® 369714 glass and 363083 plastic citrate tubes were washed and dried to remove the citrate additive. Afterwards, tubes were filled to capacity using a commercial bag of citrated human whole blood. Samples were incubated for 15 minutes at room temperature with gentle rocking to promote blood contact with the surface material of the tube wall. Finally, the whole blood clotting time was measured using combined recalcification and TEG. […] Furthermore, it is important to note that only highly sensitive coagulation assays that are performed in the absence of a strong contact pathway activator will be sensitive to these differences.
The titration was performed by evaluating whole blood clotting time (TEG R time). A minimally effective dose was determined at 1000 kallikrein inhibitor units (1000 KIU) per mL of blood as concentrations below that only provided mean clotting times that were either equivalent or lower to that of siliconized glass.
The titration was performed by evaluating whole blood clotting time (TEG R time).
as §2
As shown in FIG. 4(A) various concentrations of aprotinin were used in tests to determine the impact on whole blood clotting time using TEG. […]

A short description of data set [3]: sterilization stability of the additive in a blood collection tube. The data set is classed as physicochemical. From the text: FIG. 7 provides a comparison of kallikrein, factor XIIa, and factor IX inhibition for the purposes of mitigating contact pathway contributions to thrombin generation.
An advantage of using aprotinin over CTI or anti-Factor XI antibody is that neither of the latter two inhibitors can be present in a tube that has been sterilized.

Entries after “also recorded” stand apart in the source; their conditions may differ.

Take Corn trypsin inhibitor [CTI]: in the data set with TF coagulation pathway, the “thrombin generation in tests that monitor the TF coagulation pathway exclusively” value is recorded as “unaffected” and the “PT clotting time result” value was “none of the inhibitors produced prolonged PT or TT assays”. The “TT clotting time result” value in the data set with thrombin is on record as “none of the inhibitors produced prolonged PT or TT assays”. The aPTT result in data set [1] was “Equivalent inhibition”.
For aprotinin, the “mitigation of contact pathway contributions to thrombin generation (CAT)” value in the data set on thrombin generation (glass and plastic citrate tubes, FIG. 7) is “robustly diminished; also recorded: equivalent to that of CTI and anti-Factor XI antibody”. Further, the “thrombin generation (CAT), effect of increasing aprotinin” value in the data set on thrombin generation (siliconized glass and plastic tubes, FIG. 4B) is “delays and reduces thrombin generation in a dose dependent fashion; also recorded: thrombin generation is decreased and delayed”. In addition, the “whole blood clotting time (TEG R time)” value in data set [2] (2000 KIU/mL aprotinin, blood in uncoated glass, compared with siliconized glass or plastic) was “longer clotting times than that of blood stored in either siliconized glass or plastic”. Also, the “minimally effective dose by whole blood clotting time (TEG R time)” value in data set [2] (aprotinin titration in citrated blood, lower concentrations gave clotting times equivalent or lower to siliconized glass) is recorded as 1000 KIU per mL of blood. The “aprotinin concentration mitigating the contact coagulation pathway in uncoated glass tubes to a level equivalent to siliconized glass or plastic tubes” value in data set [2] (citrated blood in uncoated glass tubes, TEG) was not below 1000 KIU/mL. The “thrombin generation in tests that monitor the TF coagulation pathway exclusively” value in the data set on TF coagulation pathway is given as “unaffected”. For the same substance, the “PT clotting time result” value in the data set on TF coagulation pathway is on record as “none of the inhibitors produced prolonged PT or TT assays”. Further, in data set [3], the sterilization stability entry is reported as “sterilization stable”. In addition, the “TT clotting time result” value with thrombin is given as “none of the inhibitors produced prolonged PT or TT assays”. In addition, the aPTT result in data set [1] was “equivalent to or greater than the time to generate thrombin in the presence of CTI and anti-Factor XI antibody”; in data set [1] (listed as Aprotinin), “dose dependent effect”.
